Results published in US12054494B2, “Compound with anticancer activity” (KYOWA KIRIN CO., LTD., priority 2018, dated 2024).

Test system: SU-DHL-4 cells
Assay: Inhibitory effect on cell viability (Cell Counting Kit-8)
Type: cell-based
Settings: Homo sapiens, 72 hours culture with test compound, concentration showing 90% inhibition rate of cell viability
Outline: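 IC90 corresponds to 90% loss of viability, measured as CCK-8 absorbance at 450 nm (2-3 h colour development). Compounds in 9 dilutions (0.1% DMSO) were applied for 72 h at 37° C to SU-DHL-4 lymphoma cells seeded at 2000/well in RPMI1640/10% FBS after 18-25 h preculture.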

SMILES	IC90
CCC(=O)N1c2ccccc2[C@H](Nc2ccc(NC(=O)C3CCN(C(=O)c4ccc(N[C@@H]5C[C@H](C)N(C(=O)CC)c6ccccc65)cc4)CC3)cc2)C[C@@H]1C (relative stereo) [Compound 2g, 1-(4-{[(2S,4R)-2-Methyl-1-propionyl-1,2,3,4-tetrahydroquinolin-4-yl]amino}benzoyl)-N-(4-{[(2S*,4R*)-2-methyl-1-propionyl-1,2,3,4-tetrahydroquinolin-4-yl]amino}phenyl)piperidine-4-carboxamide]	0.63 nM
CCC(=O)N1c2ccccc2[C@H](Nc2ccc(NC(=O)Cn3cc(-c4ccc(N[C@@H]5C[C@H](C)N(C(=O)CC)c6ccccc65)cc4)cn3)cc2)C[C@@H]1C (relative stereo) [Compound 6n, N-(4-(((2S*,4R*)-2-Methyl-1-propionyl-1,2,3,4-tetrahydroquinolin-4-yl)amino)phenyl)-2-(4-(4-(((2S,4R)-2-methyl-1-propionyl-1,2,3,4-tetrahydroquinolin-4-yl)amino)phenyl)-1H-pyrazol-1-yl)acetamide]	0.13 nM
CCC(=O)N1c2ccccc2[C@H](Nc2ccc(C(=O)NC3CCN(C(=O)c4ccc(N[C@@H]5C[C@H](C)N(C(=O)CC)c6ccccc65)cc4)CC3)cc2)C[C@@H]1C (relative stereo) [Compound 1c, 4-{[(2S*,4R*)-2-Methyl-1-propionyl-1,2,3,4-tetrahydroquinolin-4-yl]amino}-N-[1-(4-{[(2S*,4R*)-2-methyl-1-propionyl-1,2,3,4-tetrahydroquinolin-4-yl]amino}benzoyl)piperidin-4-yl]benzamide]	7.85 nM
CCC(=O)N1c2ccccc2[C@H](Nc2ccc(CNCc3nnc(-c4ccc(N[C@@H]5C[C@H](C)N(C(=O)CC)c6ccccc65)cc4)o3)cc2)C[C@@H]1C [Compound 5g, 1-((2S,4R)-2-Methyl-4-((4-((((5-(4-(((2S,4R)-2-methyl-1-propionyl-1,2,3,4-tetrahydroquinolin-4-yl)amino)phenyl)-1,3,4-oxadiazol-2-yl)methyl)amino)methyl)phenyl)amino)-3,4-dihydroquinolin-1(2H)-yl)propan-1-one]	2.53 nM
CCC(=O)N1c2ccccc2[C@H](Nc2ccc(NC(=O)[C@@H]3CCN(C(=O)c4ccc(N[C@@H]5C[C@H](C)N(C(=O)CC)c6ccccc65)cc4)C3)cc2)C[C@@H]1C (relative stereo) [Compound 2i, (R)-1-(4-{[(2S,4R)-2-Methyl-1-propionyl-1,2,3,4-tetrahydroquinolin-4-yl]amino}benzoyl)-N-(4-{[(2S*,4R*)-2-methyl-1-propionyl-1,2,3,4-tetrahydroquinolin-4-yl]amino}phenyl)pyrrolidine-3-carboxamide]	1.84 nM
CCC(=O)N1c2ccccc2[C@H](Nc2ccc(NC(=O)CCCC(=O)Nc3ccc(N[C@@H]4C[C@H](C)N(C(=O)CC)c5ccccc54)cn3)cc2)C[C@@H]1C (relative stereo) [Compound 10l, N^1-(4-(((2S,4R)-2-Methyl-1-propionyl-1,2,3,4-tetrahydroquinolin-4-yl)amino)phenyl)-N^5-(5-(((2S*,4R*)-2-methyl-1-propionyl-1,2,3,4-tetrahydroquinolin-4-yl)amino)pyridin-2-yl)glutaramide]	1.08 nM
CCC(=O)N1c2ccccc2[C@H](Nc2ccc(NS(=O)(=O)CCNC(=O)c3ccc(N[C@@H]4C[C@H](C)N(C(=O)CC)c5ccccc54)cc3)cc2)C[C@@H]1C [Compound 6g, 4-(((2S,4R)-2-Methyl-1-propionyl-1,2,3,4-tetrahydroquinolin-4-yl)amino)-N-(2-(N-(4-(((2S,4R)-2-methyl-1-propionyl-1,2,3,4-tetrahydroquinolin-4-yl)amino)phenyl)sulfamoyl)ethyl)benzamide]	0.31 nM
CCC(=O)N1c2ccccc2[C@H](Nc2ccc(NC(=O)C3CN(C(=O)c4ccc(N[C@@H]5C[C@H](C)N(C(=O)CC)c6ccccc65)cc4)C3)cc2)C[C@@H]1C (relative stereo) [Compound 2h, 1-(4-{[(2S,4R)-2-Methyl-1-propionyl-1,2,3,4-tetrahydroquinolin-4-yl]amino}benzoyl)-N-(4-{[(2S*,4R*)-2-methyl-1-propionyl-1,2,3,4-tetrahydroquinolin-4-yl]amino}phenyl)azetidine-3-carboxamide]	0.03 nM
CCC(=O)N1c2ccccc2[C@H](Nc2ccc(-n3cc(CNC(=O)c4ccc(Cn5c(CC)cc6c5CCCC6=O)cc4)nn3)cc2)C[C@@H]1C [Compound 15f, 4-((2-Ethyl-4-oxo-4,5,6,7-tetrahydro-1H-indol-1-yl)methyl)-N-((1-(4-(((2S,4R)-2-methyl-1-propionyl-1,2,3,4-tetrahydroquinolin-4-yl)amino)phenyl)-1H-1,2,3-triazol-4-yl)methyl)benzamide]	0.04 nM
CCC(=O)N1c2ccccc2[C@H](Nc2ccc(CNCc3cn(-c4ccc(N[C@@H]5C[C@H](C)N(C(=O)CC)c6ccccc65)cc4)nn3)cc2)C[C@@H]1C [Compound 5h, 1-((2S,4R)-2-Methyl-4-((4-((((1-(4-(((2S,4R)-2-methyl-1-propionyl-1,2,3,4-tetrahydroquinolin-4-yl)amino)phenyl)-1H-1,2,3-triazol-4-yl)methyl)amino)methyl)phenyl)amino)-3,4-dihydroquinolin-1(2H)-yl)propan-1-one]	0.12 nM
CCC(=O)N1c2ccccc2[C@H](NCCOCCOCc2cn(-c3ccc(N[C@@H]4C[C@H](C)N(C(=O)CC)c5ccccc54)cc3)nn2)C[C@@H]1C (relative stereo) [Compound 12e, 1-((2S*,4R*)-2-Methyl-4-((2-(2-((1-(4-(((2S,4R)-2-methyl-1-propionyl-1,2,3,4-tetrahydroquinolin-4-yl)amino)phenyl)-1H-1,2,3-triazol-4-yl)methoxy)ethoxy)ethyl)amino)-3,4-dihydroquinolin-1(2H)-yl)propan-1-one]	73.7 nM
CCC(=O)N1c2ccccc2[C@H](Nc2ccc(CN3CC(C(=O)Nc4ccc(N[C@@H]5C[C@H](C)N(C(=O)CC)c6ccccc65)cc4)C3)cc2)C[C@@H]1C [Compound 6d, 1-(4-(((2S,4R)-2-Methyl-1-propionyl-1,2,3,4-tetrahydroquinolin-4-yl)amino)benzyl)-N-(4-(((2S,4R)-2-methyl-1-propionyl-1,2,3,4-tetrahydroquinolin-4-yl)amino)phenyl)azetidine-3-carboxamide]	5.08 nM
CCC(=O)N1c2ccccc2[C@H](Nc2ccc(NC(=O)Cc3cn(-c4ccc(N[C@@H]5C[C@H](C)N(C(=O)CC)c6ccccc65)cc4)nn3)cc2)C[C@@H]1C (relative stereo) [Compound 6i, N-(4-(((2S*,4R*)-2-Methyl-1-propionyl-1,2,3,4-tetrahydroquinolin-4-yl)amino)phenyl)-2-(1-(4-(((2S*,4R*)-2-methyl-1-propionyl-1,2,3,4-tetrahydroquinolin-4-yl)amino)phenyl)-1H-1,2,3-triazol-4-yl)acetamide]	0.11 nM
CCC(=O)N1c2ccccc2[C@H](Nc2ccc(C(=O)N3CCn4c(C(O)c5ccc(N[C@@H]6C[C@H](C)N(C(=O)CC)c7ccccc76)cc5)cnc4C3)cc2)C[C@@H]1C (stereo partly drawn) [Compound 6a, 1-((2S,4R)-4-((4-(3-(Hydroxy(4-(((2S,4R)-2-methyl-1-propionyl-1,2,3,4-tetrahydroquinolin-4-yl)amino)phenyl)methyl)-5,6,7,8-tetrahydroimidazo[1,2-a]pyrazine-7-carbonyl)phenyl)amino)-2-methyl-3,4-dihydroquinolin-1(2H)-yl)propan-1-one]	0.89 nM
